These results are taken from patent US20060228297A1, “Thorium-227 for use in radiotherapy of soft tissue disease” (priority 2003, published 2006).

The series deals with humans. The series can be described thus: Estimate of ^223Ra toxicity from prior art (translated from ^224Ra dog data). Particulars: expected for humans, assuming similar haematological toxicity in dogs and humans. The text has this: Because of the lack of human data on toxicity of radium-223 and radium-224, an assumed radiotoxicity for ^223Ra can be derived as follows, using published data for radium-224 in dogs. The decay series (including the decays of daughter nuclides) of both ^224Ra and ^223Ra causes an emission of four alpha panicles per radium atoms. The total alpha particle doses from ^223Ra and ^224Ra in equilibrium with daughters are approximately 26.3 and 27.1 MeV per transformation respectively and are therefore closely equivalent. The half-lives of ^224Ra is 3.62 days and for ^223Ra it is 11.43 days. This means that per activity unit injected, the skeletal dose from ^223Ra would be approximately 3.1 times that from ^224Ra, taking into account alpha energy and half-life differences, and assuming long-term biological retention of the radionuclide (i.e., the clearance is governed by the physical half-life of the radionuclide). This is a valid assumption because Ra is a Ca analogue and is readily incorporated into the skeleton.
At 350 kBq/kg death, caused by haematological dyscrasia resulting from bone marrow destruction, occurred in some subjects (3 dogs out of 8). It may therefore be assumed that the maximum tolerable dose of ^224Ra is between 120 and 350 kBq/kg in dogs. Translated into ^223Ra, as described above, this would correspond to 39-113 kBq/kg of ^223Ra. […]

Turning to `[223Ra]` [^223Ra, radium-223], the “Maximum tolerable dose, translated from ^224Ra dog data” value is listed as 39-113 kBq/kg.
